Numbers after ± are expanded uncertainties.
Assay: refractive index (Na D-line) (dimensionless)
Details: 293.15 K, Liquid, Standard Abbe refractometry

Compound	refractive index (101.23 kPa)	refractive index (100 kPa)
c1ccoc1 [furan]	1.4218 ± 0.0004	–
Cc1ccccc1 [toluene]	–	1.4966 ± 0.0007
